From US20240239849A1, “PEPTIDE ENTITIES WITH ANTIMICROBIAL ACTIVITY AGAINST MULTI-DRUG RESISTANT PATHOGENS” (CENTRO DE INVESTIGACIÓN Y DESARROLLO DE MEDICAMENTOS. CIDEM, priority 2020, published 2024)

How the values were obtained:
[1] = tested on: K. pneumoniae (multi-resistant clinical isolate); experiment: checkerboard test, Meropenem/peptide combinations; type: cell-based, Klebsiella pneumoniae; settings: meropenem alone, denominator of FICA
Method: (§1) Only strains from clinical isolates of Gram-negative bacteria Klebsiella pneumoniae and Gram-positive Staphylococcus aureus multiresistant to antibiotics were chosen to carry out the combination tests between the peptides. The experiments were carried out according to the methodology of the test described as “checkerboard” or checkerboard [Huang, R.-y., et al., Isobologram Analysis: A Comprehensive Review of Methodology and Current Research. Frontiers in Pharmacology, 2019. 10: p. 1222] This test allows the determination of the fractional inhibitory concentration index (FICI) following Equation 3, which establishes the classification of the effects obtained as follows: synergy (FICI≤0.5), additive (0.5<FICI≤ 1), indifferent (1<FICI≤2) and antagonism (FICI>2).
(§2) Where: MICA: minimum inhibitory concentration of compound A; MICB: minimum inhibitory concentration of compound B; MICAB: minimum concentration of A that combined with B inhibits growth; MICBA: minimum concentration of B that combined with A inhibits growth. The checkerboard experiment was performed in sterile 96-well polypropylene plates (Eppendorf, Germany). Isolated colonies of each bacterium were used to create 1×10^5 CFU bacterial cultures in PBS, referred to as a working culture. In addition, 64 μM stock solutions of the peptides were prepared in PBS. Two-fold dilutions in PBS of each peptide were made in 50 μL final volume. […]

[2] = tested on: S. aureus (multi-resistant clinical isolate); experiment: checkerboard test, Meropenem/peptide combinations; type: cell-based, Staphylococcus aureus; settings: meropenem alone, denominator of FICA
Method: as §1, §2

C[C@@H](O)[C@H]1C(=O)N2C(C(=O)O)=C(S[C@@H]3CN[C@H](C(=O)N(C)C)C3)[C@H](C)[C@H]12 [MER, Meropenem, reference compound]
MICA (minimum inhibitory concentration of compound A) [1]: 8.0 µg/mL
MICA (minimum inhibitory concentration of compound A) [2]: 8.0 µg/mL
